Assay results reported in patent publication US20230085307A1, “PYRIDAZINONE COMPOUND AND HERBICIDE” (NISSAN CHEMICAL CORPORATION, priority 2019, published 2023).

What was measured:
[1] = tested on: chickweed; assay: Test Example 4: herbicidal effect by soil treatment (Table 19, symbol P); assay type: in vivo, common chickweed (Stellaria media); settings: for herbicidal effect rating, P: chickweed: 320 g/ha; for P: chickweed, herbicidal effect rating: amount of applied herbicide 320 g/ha
Outline: (§1)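 Emulsion of test compound, water-diluted to predetermined amount, sprayed on soil after sowing (seed depth ~1.5 cm, sterilized diluvial soil). Greenhouse, 25–30° C. Effect graded at three weeks post-spray.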

[2] = tested on: Italian ryegrass; assay: Test Example 4: herbicidal effect by soil treatment (Table 19, symbol K); assay type: in vivo, Italian ryegrass (Lolium multiflorum); settings: for herbicidal effect rating, K: Italian ryegrass: 320 g/ha; for K: Italian ryegrass, herbicidal effect rating: amount of applied herbicide 320 g/ha
Outline: as §1

[3] = tested on: persian speedwell; assay: Test Example 4: herbicidal effect by soil treatment (Table 19, symbol R); assay type: in vivo, Persian speedwell (Veronica persica); settings: for herbicidal effect rating, R: persian speedwell: 320 g/ha; for R: persian speedwell, herbicidal effect rating: amount of applied herbicide 320 g/ha
Outline: as §1

[4] = tested on: Chinese sprangletop; assay: Test Example 3: herbicidal effect by foliage application, Wagner pot (Table 18, symbol D); assay type: in vivo, chinese sprangletop (Leptochloa chinensis); settings: for herbicidal effect on D (Chinese sprangletop), rating 0-5: 320 g/ha; for herbicidal effect on D: Chinese sprangletop: amount of applied herbicide 320 g/ha
Outline: (§2)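 Plants were sown in alluvial soil held under 0.1–0.5 cm standing water and grown 14 days in a greenhouse at 25–30 °C. An emulsifiable formulation, water-diluted to the set dose, was then sprayed onto the foliage, and effects were scored three weeks later using previously defined criteria.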

[5] = tested on: southern crabgrass; assay: Test Example 5: herbicidal effect by foliage application, plastic box (Table 20, symbol F); assay type: in vivo, southern crabgrass (Digitaria ciliaris); settings: foliage application, 320 g/ha, evaluated three weeks after application
Outline: (§3)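 Post-emergence foliar test in sterilized diluvial soil. Compound applied as water-diluted emulsion at a predetermined rate to 14-day-old plants; evaluation at three weeks.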

[6] = tested on: late watergrass; assay: Test Example 1: herbicidal activity, application before weed generation under submerged conditions (Table 16, symbol A); assay type: in vivo, late watergrass (Echinochloa oryzicola); settings: 320 g/ha applied herbicide
Outline: (§4)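 Submerged Wagner pots (alluvial soil, 4 cm water) sown with weed seeds and planted with 2.5-leaf rice seedlings; emulsifiable concentrate diluted in water applied to water surface on sowing day. Held in greenhouse at 25-30 °C; injury scored 0-5 by herbicidal rate after three weeks.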

[7] = tested on: oval-leafed pondweed; assay: Test Example 1: herbicidal activity, application before weed generation under submerged conditions (Table 16, symbol C); assay type: in vivo, oval-leafed pondweed (Monochoria vaginalis); settings: 320 g/ha applied herbicide
Outline: as §4

[8] = tested on: redroot pigweed; assay: Test Example 5: herbicidal effect by foliage application, plastic box (Table 20, symbol N); assay type: in vivo, redroot pigweed (Amaranthus retroflexus); settings: foliage application, 320 g/ha, evaluated three weeks after application
Outline: as §3

[9] = tested on: Japanese bulrush; assay: Test Example 1: herbicidal activity, application before weed generation under submerged conditions (Table 16, symbol B); assay type: in vivo, Japanese bulrush (Schoenoplectus juncoides); settings: 320 g/ha applied herbicide
Outline: as §4

[10] = tested on: barnyard grass; assay: Test Example 3: herbicidal effect by foliage application, Wagner pot (Table 18, symbol H); assay type: in vivo, barnyard grass (Echinochloa crus-galli); settings: for herbicidal effect on H (barnyard grass), rating 0-5: 320 g/ha; for herbicidal effect on H: barnyard grass: amount of applied herbicide 320 g/ha
Outline: as §2

[11] = tested on: velvetleaf; assay: Test Example 5: herbicidal effect by foliage application, plastic box (Table 20, symbol M); assay type: in vivo, velvetleaf (Abutilon theophrasti); settings: foliage application, 320 g/ha, evaluated three weeks after application
Outline: as §3

[12] = tested on: lambsquarters; assay: Test Example 4: herbicidal effect by soil treatment (Table 19, symbol O); assay type: in vivo, lambsquarters (Chenopodium album); settings: for herbicidal effect rating, O: lambsquarters: 320 g/ha; for O: lambsquarters, herbicidal effect rating: amount of applied herbicide 320 g/ha
Outline: as §1

[13] = tested on: windgrass; assay: Test Example 4: herbicidal effect by soil treatment (Table 19, symbol L); assay type: in vivo, windgrass (Apera spica-venti); settings: for herbicidal effect rating, L: windgrass: 320 g/ha; for L: windgrass, herbicidal effect rating: amount of applied herbicide 320 g/ha
Outline: as §1

[14] = tested on: blackgrass; assay: Test Example 5: herbicidal effect by foliage application, plastic box (Table 20, symbol J); assay type: in vivo, blackgrass (Alopecurus myosuroides); settings: foliage application, 320 g/ha, evaluated three weeks after application
Outline: as §3

[15] = tested on: barnyard grass; assay: Test Example 5: herbicidal effect by foliage application, plastic box (Table 20, symbol H); assay type: in vivo, barnyard grass (Echinochloa crus-galli); settings: foliage application, 320 g/ha, evaluated three weeks after application
Outline: as §3

[16] = tested on: wild oat; assay: Test Example 5: herbicidal effect by foliage application, plastic box (Table 20, symbol I); assay type: in vivo, wild oat (Avena fatua); settings: foliage application, 320 g/ha, evaluated three weeks after application
Outline: as §3

[17] = tested on: windgrass; assay: Test Example 5: herbicidal effect by foliage application, plastic box (Table 20, symbol L); assay type: in vivo, windgrass (Apera spica-venti); settings: foliage application, 320 g/ha, evaluated three weeks after application
Outline: as §3

[18] = tested on: rice flat sedge; assay: Test Example 3: herbicidal effect by foliage application, Wagner pot (Table 18, symbol E); assay type: in vivo, rice flat sedge (Cyperus iria); settings: for herbicidal effect on E (rice flat sedge), rating 0-5: 320 g/ha; for herbicidal effect on E: rice flat sedge: amount of applied herbicide 320 g/ha
Outline: as §2

[19] = tested on: chickweed; assay: Test Example 5: herbicidal effect by foliage application, plastic box (Table 20, symbol P); assay type: in vivo, common chickweed (Stellaria media); settings: foliage application, 320 g/ha, evaluated three weeks after application
Outline: as §3

SMILES | herbicidal effect rating, P: chickweed [1] | herbicidal effect rating, K: Italian ryegrass [2] | herbicidal effect rating, R: persian speedwell [3] | herbicidal effect on D (Chinese sprangletop), rating 0-5 [4] | herbicidal effect on F: southern crabgrass [5] | Herbicidal effect on A: late watergrass (grade 0-5) [6] | Herbicidal effect on C: oval-leafed pondweed (grade 0-5) [7] | herbicidal effect on N: redroot pigweed [8] | Herbicidal effect on B: Japanese bulrush (grade 0-5) [9] | herbicidal effect on H (barnyard grass), rating 0-5 [10] | herbicidal effect on M: velvetleaf [11] | herbicidal effect rating, O: lambsquarters [12] | herbicidal effect rating, L: windgrass [13] | herbicidal effect on J: blackgrass [14] | herbicidal effect on H: barnyard grass [15] | herbicidal effect on I: wild oat [16] | herbicidal effect on L: windgrass [17] | herbicidal effect on E (rice flat sedge), rating 0-5 [18] | herbicidal effect on P: chickweed [19] | P: chickweed, herbicidal effect rating [1] | other results
CCCC(=O)Oc1c(C)nn(C)c(=O)c1-c1c(-c2ccc(F)cc2OCC)sc2ccc(F)cc12 [2-085] | 3 (Herbicidal rate of 40% or more and less than 70%) | 0 (Herbicidal rate of 5% or less (almost no effect)) | 3 (Herbicidal rate of 40% or more and less than 70%) | 0 (Herbicidal rate of 5% or less (almost no effect)) | 5 (Herbicidal rate of 90% or more (almost completely withered)) | 4 (Herbicidal rate of 70% or more and less than 90%) | 1 (Herbicidal rate of 5% or more and less than 20%) | 4 (Herbicidal rate of 70% or more and less than 90%) | 3 (Herbicidal rate of 40% or more and less than 70%) | 5 (Herbicidal rate of 90% or more (almost completely withered)) | 5 (Herbicidal rate of 90% or more (almost completely withered)) | 3 (Herbicidal rate of 40% or more and less than 70%) | 0 (Herbicidal rate of 5% or less (almost no effect)) | 1 (Herbicidal rate of 5% or more and less than 20%) | 4 (Herbicidal rate of 70% or more and less than 90%) | 3 (Herbicidal rate of 40% or more and less than 70%) | 1 (Herbicidal rate of 5% or more and less than 20%) | 4 (Herbicidal rate of 70% or more and less than 90%) | 5 (Herbicidal rate of 90% or more (almost completely withered)) |  | 
Cc1nn(C)c(=O)c(-c2c(-c3ccc4c(c3)OCCO4)sc3ccc(F)cc23)c1O [2-092] | 4 (Herbicidal rate of 70% or more and less than 90%) | 1 (Herbicidal rate of 5% or more and less than 20%) | 5 (Herbicidal rate of 90% or more (almost completely withered)) | 4 (Herbicidal rate of 70% or more and less than 90%) | 4 (Herbicidal rate of 70% or more and less than 90%) | 2 (Herbicidal rate of 20% or more and less than 40%) | 2 (Herbicidal rate of 20% or more and less than 40%) | 5 (Herbicidal rate of 90% or more (almost completely withered)) | 3 (Herbicidal rate of 40% or more and less than 70%) | 5 (Herbicidal rate of 90% or more (almost completely withered)) | 5 (Herbicidal rate of 90% or more (almost completely withered)) | 5 (Herbicidal rate of 90% or more (almost completely withered)) | 0 (Herbicidal rate of 5% or less (almost no effect)) | 4 (Herbicidal rate of 70% or more and less than 90%) | 5 (Herbicidal rate of 90% or more (almost completely withered)) | 3 (Herbicidal rate of 40% or more and less than 70%) | 4 (Herbicidal rate of 70% or more and less than 90%) | 5 (Herbicidal rate of 90% or more (almost completely withered)) | 5 (Herbicidal rate of 90% or more (almost completely withered)) |  | 
Cc1nn(C)c(=O)c(-c2c(-c3ccc(C(F)(F)F)cc3)sc3ccc(Cl)cc23)c1O [2-111] |  |  |  |  | 0 (Herbicidal rate of 5% or less (almost no effect)) | 3 (Herbicidal rate of 40% or more and less than 70%) | 0 (Herbicidal rate of 5% or less (almost no effect)) | 5 (Herbicidal rate of 90% or more (almost completely withered)) | 3 (Herbicidal rate of 40% or more and less than 70%) |  | 3 (Herbicidal rate of 40% or more and less than 70%) |  |  | 5 (Herbicidal rate of 90% or more (almost completely withered)) | 4 (Herbicidal rate of 70% or more and less than 90%) | 0 (Herbicidal rate of 5% or less (almost no effect)) | 5 (Herbicidal rate of 90% or more (almost completely withered)) |  | 5 (Herbicidal rate of 90% or more (almost completely withered)) | 0 (Herbicidal rate of 5% or less (almost no effect)) | K: Italian ryegrass, herbicidal effect rating [2]: 3 (Herbicidal rate of 40% or more and less than 70%); R: persian speedwell, herbicidal effect rating [3]: 5 (Herbicidal rate of 90% or more (almost completely withered)); herbicidal effect on D: Chinese sprangletop [4]: 2 (Herbicidal rate of 20% or more and less than 40%); herbicidal effect on H: barnyard grass [10]: 4 (Herbicidal rate of 70% or more and less than 90%); O: lambsquarters, herbicidal effect rating [12]: 4 (Herbicidal rate of 70% or more and less than 90%); L: windgrass, herbicidal effect rating [13]: 5 (Herbicidal rate of 90% or more (almost completely withered)); herbicidal effect on E: rice flat sedge [18]: 3 (Herbicidal rate of 40% or more and less than 70%)
CCCC(=O)Oc1c(C)nn(C)c(=O)c1-c1c(-c2ccccc2OC)sc2ccc(C)cc12 [2-139] |  |  |  |  | 3 (Herbicidal rate of 40% or more and less than 70%) | 4 (Herbicidal rate of 70% or more and less than 90%) | 1 (Herbicidal rate of 5% or more and less than 20%) | 4 (Herbicidal rate of 70% or more and less than 90%) | 3 (Herbicidal rate of 40% or more and less than 70%) |  | 3 (Herbicidal rate of 40% or more and less than 70%) |  |  | 2 (Herbicidal rate of 20% or more and less than 40%) | 4 (Herbicidal rate of 70% or more and less than 90%) | 1 (Herbicidal rate of 5% or more and less than 20%) | 0 (Herbicidal rate of 5% or less (almost no effect)) |  | 5 (Herbicidal rate of 90% or more (almost completely withered)) | 5 (Herbicidal rate of 90% or more (almost completely withered)) | K: Italian ryegrass, herbicidal effect rating [2]: 1 (Herbicidal rate of 5% or more and less than 20%); R: persian speedwell, herbicidal effect rating [3]: 4 (Herbicidal rate of 70% or more and less than 90%); herbicidal effect on D: Chinese sprangletop [4]: 0 (Herbicidal rate of 5% or less (almost no effect)); herbicidal effect on H: barnyard grass [10]: 4 (Herbicidal rate of 70% or more and less than 90%); O: lambsquarters, herbicidal effect rating [12]: 0 (Herbicidal rate of 5% or less (almost no effect)); L: windgrass, herbicidal effect rating [13]: 0 (Herbicidal rate of 5% or less (almost no effect)); herbicidal effect on E: rice flat sedge [18]: 4 (Herbicidal rate of 70% or more and less than 90%)
